Literature values in patent US20260273014A1, “Herbal composition for metabolic syndromes and method of treatment thereof” (priority 2019, published 2026).

Settings: pure mangiferin (Acosta et al. 2016)

- solubility: an issue in most biological models
SMILES: O=c1c2cc(O)c(O)cc2oc2cc(O)c([C@@H]3O[C@H](CO)[C@@H](O)[C@H](O)[C@H]3O)c(O)c12 [mangiferin]
